# Measurements reported in ChEMBL document CHEMBL1201862, “PubChem BioAssay data set” (2004).
#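 Interpolation was linear, between the two tested concentrations surrounding the appropriate level; five concentrations were tested over 48 hours in 96-well plates. The concentration for 50% growth inhibition is given as GI50.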 Calls of active or inactive are those of the source. Cut-off read from the data, not from the text of the source: active = GI50 up to about 1.1 µM and inactive = higher.
# Tests used:
# Assay in all cases: NCI tumour cell line growth inhibition, 48 h
# A549 = test system: A549
# ACHN = test system: ACHN
# HOP-62 = test system: HOP-62
# HOP-92 = test system: HOP-92
# M14 = test system: M14
# NCI-H460 = test system: NCI-H460
# OVCAR-3 = test system: OVCAR-3
# OVCAR-4 = test system: OVCAR-4
# OVCAR-5 = test system: OVCAR-5
# OVCAR-8 = test system: OVCAR-8
# SF-295 = test system: SF-295
# SK-MEL-2 = test system: SK-MEL-2
# SK-MEL-5 = test system: SK-MEL-5
# SR = test system: SR
# TK-10 = test system: TK-10
# U-251 = test system: U-251
# UACC-257 = test system: UACC-257
# UACC-62 = test system: UACC-62
# UO-31 = test system: UO-31
# CCRF-CEM = test system: CCRF-CEM
Compound,GI50 (A549),GI50 (ACHN),GI50 (HOP-62),GI50 (HOP-92),GI50 (M14),GI50 (NCI-H460),GI50 (OVCAR-3),GI50 (OVCAR-4),GI50 (OVCAR-5),GI50 (OVCAR-8),GI50 (SF-295),GI50 (SK-MEL-2),GI50 (SK-MEL-5),GI50 (SR),GI50 (TK-10),GI50 (U-251),GI50 (UACC-257),GI50 (UACC-62),GI50 (UO-31),GI50 (CCRF-CEM)
O=c1oc2ccccc2cc1-c1cn2cc(Cl)ccc2n1,0.719 µM (active),0.586 µM (active),0.714 µM (active),5.45 µM (inactive),0.544 µM (active),0.488 µM (active),0.497 µM (active),2.46 µM (inactive),10.1 µM (inactive),1.71 µM (inactive),0.535 µM (active),3.27 µM (inactive),0.782 µM (active),0.0687 µM (active),7.53 µM (inactive),0.653 µM (active),4.58 µM (inactive),0.245 µM (active),1.32 µM (inactive),–
N#Cc1c(Nc2ccc(F)cc2)[n+]([O-])c2ccc(Cl)cc2[n+]1[O-],0.568 µM (active),–,4.52 µM (inactive),2.14 µM (inactive),3.36 µM (inactive),2.38 µM (inactive),2.62 µM (inactive),2.03 µM (inactive),–,3.55 µM (inactive),1.85 µM (inactive),3.67 µM (inactive),3.91 µM (inactive),1.57 µM (inactive),19.9 µM (inactive),2.38 µM (inactive),2.91 µM (inactive),3.66 µM (inactive),4.58 µM (inactive),2.62 µM (inactive)
CC1=Nc2ccccc2C12C(c1ccccc1)C(c1ccccc1)C(=O)N1c3ccccc3CC12 (stereo unspecified),> 100 µM (inactive),> 100 µM (inactive),> 100 µM (inactive),> 100 µM (inactive),> 100 µM (inactive),> 100 µM (inactive),> 100 µM (inactive),19.9 µM (inactive),> 100 µM (inactive),> 100 µM (inactive),> 100 µM (inactive),> 100 µM (inactive),> 100 µM (inactive),> 100 µM (inactive),> 100 µM (inactive),> 100 µM (inactive),> 100 µM (inactive),> 100 µM (inactive),> 100 µM (inactive),–
O=C1c2ccccc2C(=O)c2cc(/N=N/c3c(O)ccc4ccccc34)ccc21,> 100 µM (inactive),> 100 µM (inactive),30.2 µM (inactive),> 100 µM (inactive),> 100 µM (inactive),–,> 100 µM (inactive),> 100 µM (inactive),> 100 µM (inactive),> 100 µM (inactive),> 100 µM (inactive),> 100 µM (inactive),> 100 µM (inactive),> 100 µM (inactive),> 100 µM (inactive),56.4 µM (inactive),> 100 µM (inactive),> 100 µM (inactive),> 100 µM (inactive),> 100 µM (inactive)
Cc1ncc([N+](=O)[O-])n1CC[N+](C)([O-])CCCCn1ccnc1[N+](=O)[O-] (stereo unspecified),> 100 µM (inactive),> 100 µM (inactive),> 100 µM (inactive),–,> 100 µM (inactive),> 100 µM (inactive),> 100 µM (inactive),> 100 µM (inactive),> 100 µM (inactive),> 100 µM (inactive),> 100 µM (inactive),> 100 µM (inactive),> 100 µM (inactive),> 100 µM (inactive),> 100 µM (inactive),> 100 µM (inactive),> 100 µM (inactive),> 100 µM (inactive),> 100 µM (inactive),> 100 µM (inactive)
Cc1ccc([N+](=O)[O-])cc1S(=O)(=O)Nc1ccc(C2=NN(c3ccc([N+](=O)[O-])cc3[N+](=O)[O-])C(c3ccccc3)C2)cc1 (stereo unspecified),19.1 µM (inactive),17.6 µM (inactive),15.5 µM (inactive),14.8 µM (inactive),17.4 µM (inactive),–,14.2 µM (inactive),19.8 µM (inactive),23.7 µM (inactive),17 µM (inactive),14.3 µM (inactive),13.6 µM (inactive),11.9 µM (inactive),22.4 µM (inactive),26.4 µM (inactive),12.7 µM (inactive),16.2 µM (inactive),–,14.8 µM (inactive),22.1 µM (inactive)
O=C(CC(=O)Nc1ccc(C(=O)O)cc1)Nc1ccc(C(=O)O)cc1,> 100 µM (inactive),> 100 µM (inactive),–,> 100 µM (inactive),> 100 µM (inactive),> 100 µM (inactive),> 100 µM (inactive),> 100 µM (inactive),–,> 100 µM (inactive),> 100 µM (inactive),17.3 µM (inactive),> 100 µM (inactive),> 100 µM (inactive),> 100 µM (inactive),> 100 µM (inactive),> 100 µM (inactive),37.6 µM (inactive),> 100 µM (inactive),> 100 µM (inactive)
Cc1ccc(NC(=O)/C(=N\Nc2ccc([N+](=O)[O-])cc2[N+](=O)[O-])C2C(=O)NC(=O)NC2=O)cc1,50.9 µM (inactive),23.3 µM (inactive),27.5 µM (inactive),> 100 µM (inactive),89.7 µM (inactive),71 µM (inactive),> 100 µM (inactive),65.5 µM (inactive),> 100 µM (inactive),55.7 µM (inactive),46.1 µM (inactive),–,33.2 µM (inactive),> 100 µM (inactive),> 100 µM (inactive),38.6 µM (inactive),> 100 µM (inactive),7.13 µM (inactive),15.5 µM (inactive),31.8 µM (inactive)
O=C1/C(=C/c2ccccc2)CN(C(=O)C(Cl)(Cl)Cl)C/C1=C\c1ccccc1,13.9 µM (inactive),2.01 µM (inactive),> 10 µM (inactive),–,1.26 µM (inactive),2.08 µM (inactive),2.86 µM (inactive),1.73 µM (inactive),2.51 µM (inactive),1.73 µM (inactive),1.82 µM (inactive),2.91 µM (inactive),1.15 µM (inactive),1.85 µM (inactive),2.57 µM (inactive),1.64 µM (inactive),1.58 µM (inactive),1.68 µM (inactive),2.59 µM (inactive),0.551 µM (active)
C[C@@H]1O[C@]2(O)[C@@H]3CCCN3S(=O)(=O)CCN2C1=O,> 100 µM (inactive),> 100 µM (inactive),> 100 µM (inactive),> 100 µM (inactive),> 100 µM (inactive),> 100 µM (inactive),> 100 µM (inactive),> 100 µM (inactive),> 100 µM (inactive),> 100 µM (inactive),> 100 µM (inactive),–,> 100 µM (inactive),> 100 µM (inactive),> 100 µM (inactive),> 100 µM (inactive),> 100 µM (inactive),> 100 µM (inactive),> 100 µM (inactive),> 100 µM (inactive)
COc1cccc(-c2[nH]c3cc4c(cc3c(=O)c2C(=O)O)OCO4)c1,44.7 µM (inactive),86.7 µM (inactive),62.8 µM (inactive),27.5 µM (inactive),26 µM (inactive),43.7 µM (inactive),44.4 µM (inactive),28.6 µM (inactive),> 100 µM (inactive),23.2 µM (inactive),23.8 µM (inactive),78.7 µM (inactive),31 µM (inactive),8.73 µM (inactive),–,37.2 µM (inactive),> 100 µM (inactive),33.6 µM (inactive),49.2 µM (inactive),27.4 µM (inactive)
Oc1ccccc1C1C=C(c2ccccc2)NC(N2CCCCC2)=C1c1nc2ccccc2[nH]1 (stereo unspecified),15.7 µM (inactive),18.2 µM (inactive),14.1 µM (inactive),13.7 µM (inactive),13 µM (inactive),14.3 µM (inactive),14.6 µM (inactive),13.3 µM (inactive),17.9 µM (inactive),15.9 µM (inactive),15.5 µM (inactive),–,13.9 µM (inactive),12.4 µM (inactive),19.9 µM (inactive),15.1 µM (inactive),16 µM (inactive),15.8 µM (inactive),11.1 µM (inactive),17.1 µM (inactive)
CCN(CC)c1ccc2cc(C(=O)Nc3nc(C45CC6CC(CC(C6)C4)C5)cs3)c(=O)oc2c1,> 100 µM (inactive),> 100 µM (inactive),> 100 µM (inactive),> 100 µM (inactive),–,> 100 µM (inactive),> 100 µM (inactive),> 100 µM (inactive),> 100 µM (inactive),> 100 µM (inactive),> 100 µM (inactive),–,> 100 µM (inactive),> 100 µM (inactive),> 100 µM (inactive),> 100 µM (inactive),> 100 µM (inactive),–,> 100 µM (inactive),> 100 µM (inactive)
CC(NC(=O)c1ccc(OP(=O)(OCC2=CC(=O)c3ccccc3C2=O)N(C)CCCCCl)cc1)c1ccc(OCC2CCCCC2)c(C(N)=O)c1 (stereo unspecified),1.67 µM (inactive),12.7 µM (inactive),18 µM (inactive),0.0244 µM (active),3.32 µM (inactive),11 µM (inactive),1.41 µM (inactive),–,21.4 µM (inactive),13.4 µM (inactive),5.06 µM (inactive),14.8 µM (inactive),0.328 µM (active),12.6 µM (inactive),25.1 µM (inactive),10.6 µM (inactive),4.59 µM (inactive),9.64 µM (inactive),10.2 µM (inactive),7.71 µM (inactive)
